A value given as a limit tells only on which side of the number the result lay.

One experiment has as its target T1, HTH-type transcriptional regulator LuxR (Vibrio harveyi) (UniProt P21308).
T1 sequence (whole entry): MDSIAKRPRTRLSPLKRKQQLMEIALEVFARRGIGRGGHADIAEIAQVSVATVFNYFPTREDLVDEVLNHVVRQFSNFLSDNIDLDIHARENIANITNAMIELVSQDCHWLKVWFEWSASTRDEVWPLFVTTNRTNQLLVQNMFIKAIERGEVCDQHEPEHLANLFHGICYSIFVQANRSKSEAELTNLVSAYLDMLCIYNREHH
In words: Inhibition of LuxR quorum sensing system in Vibrio harveyi BB120 assessed as inhibition of autoinducer-2 induced luxR activity at 100 uM for 16 hrs by bioluminescence assay.
Details: not given
The term inhibition denotes the drop in the measured response relative to a control, in per cent. Consider `CC/C=C/C=O`, for which the inhibition came out at 58%.

As to `O=C/C=C/c1ccc([N+](=O)[O-])cc1`, the inhibition came to 33%.

As for `CCC/C=C/C=O`, the inhibition was determined as 35%.

`CCCCC/C=C/C=O`: the inhibition stood at 71%.

For the compound `CC(=O)/C=C/c1ccccc1`, the inhibition amounted to 78%.

On to `O=C/C=C/c1ccccc1`, for which the inhibition is 65%.

On to `CCCCCC/C=C/C(C)=O`, for which the inhibition was found to be 100%.

For the compound `CS(=O)(=O)/C=C/c1ccccc1`, the inhibition worked out at 73%.

`CCCCCCCCC/C=C/C=O`: the inhibition is 87%.

As for `O=C/C=C/c1c(F)c(F)c(F)c(F)c1F`, the inhibition was 95%.

`CCCC/C=C/C(C)=O`: the inhibition is 80%.

Take `O=C/C=C/c1ccc(Cl)c(C(F)(F)F)c1`: the inhibition was found to be 97%.

Regarding `COc1ccccc1/C=C/C=O`, the inhibition worked out at 14%.

As for `CC(=O)C1=CCCCC1`, the inhibition came out at 16%.

On to `O=C/C=C/c1ccc(Cl)c(Cl)c1`, for which the inhibition is 99%.

As for `COc1ccc(/C=C/C=O)cc1`, the inhibition was found to be 34%.

`O=C/C=C/c1ccccc1[N+](=O)[O-]`: the inhibition was found to be 62%.

In the case of `CCCC/C=C/C(=O)O`, the inhibition was found to be 36%.

On to `CC(=O)CCc1ccccc1`, for which the inhibition is 13%.

Turning to `CCCCC/C=C/C(C)=O`, the inhibition was 100%.

As to `CN(C)c1ccc(/C=C/C=O)cc1`, the inhibition stood at 17%.

For the compound `CCCCCCCC/C=C/C=O`, the inhibition worked out at 94%.

For the compound `NC(=O)/C=C/c1ccccc1`, the inhibition was 61%.

With `CCCCCC/C=C/C=O`, the inhibition was found to be 100%.

With `CCCC/C=C/C=O`, the inhibition came out at 55%.

Take `CCCCCC/C=C/C(=O)CO`: the inhibition came out at 17%.

On to `CCCCCCC/C=C/C=O`, for which the inhibition was 90%.

Turning to `CCCCCCCCCC/C=C/C=O`, the inhibition turned out to be 56%.

As for `CCCCCC/C=C/C(=O)OC`, the inhibition is 59%.

System in a further experiment: not listed separately
Nature of the experiment: Inhibition of quorum-sensing system in Vibrio harveyi BB170 assessed as inhibition of LuxU induced bioluminescence by bioluminescence assay. The conditions noted are these: concentration not given here. Further details: concentration or dose not given beside the values.
`COc1ccc(C2CC(=O)c3c(O)cc(O[C@@H]4O[C@H](CO)[C@@H](O)[C@H](O)[C@H]4O[C@@H]4O[C@@H](C)[C@H](O)[C@@H](O)[C@H]4O)cc3O2)cc1O` (stereo partly drawn): the inhibition is above 20%.

For the compound `C[C@@H]1O[C@@H](O[C@H]2[C@H](Oc3cc(O)c4c(c3)OC(c3ccc(O)c(O)c3)CC4=O)O[C@H](CO)[C@@H](O)[C@@H]2O)[C@H](O)[C@H](O)[C@H]1O` (stereo partly drawn), the inhibition was above 20%.

For `COc1ccc(-c2cc(=O)c3c(OC)c(OC)c(OC)cc3o2)cc1OC`, the inhibition is 60%.

As for `O=c1c(O)c(-c2ccc(O)cc2)oc2cc(O)cc(O)c12`, the inhibition is above 99%.

For the compound `COc1ccc(C2CC(=O)c3c(O)cc(O[C@@H]4O[C@H](CO[C@@H]5O[C@@H](C)[C@H](O)[C@@H](O)[C@H]5O)[C@@H](O)[C@H](O)[C@H]4O)cc3O2)cc1O` (stereo partly drawn), the inhibition was found to be 10%.

Turning to `O=C1CC(c2ccc(O)cc2)Oc2cc(O)cc(O)c21` (stereo not drawn), the inhibition was 80%.

With `C[C@@H]1O[C@@H](O[C@H]2[C@H](Oc3cc(O)c4c(c3)OC(c3ccc(O)cc3)CC4=O)O[C@H](CO)[C@@H](O)[C@@H]2O)[C@H](O)[C@H](O)[C@H]1O` (stereo partly drawn), the inhibition was 40%.

`O=c1c(O)c(-c2ccc(O)c(O)c2)oc2cc(O)cc(O)c12`: the inhibition is above 99%.

System in another experiment: not listed separately
Nature of the experiment: Inhibition of quorum-sensing system in Vibrio harveyi MM32 assessed as inhibition of AI-2 mediated bioluminescence incubated for 4 to 6 hrs by bioluminescence assay.
Details: not given
As usually defined, the IC50 is the concentration needed to halve the response being measured. As to `Cn1cnnc1SCC(=O)Nc1nc2ccccc2s1`, the IC50 turned out to be 5.51 µM.

For `NC(=S)CS(=O)(=O)c1ccccn1`, the half-inhibitory concentration (IC50) is 55 µM.

With `CSC1=CS(=O)(=O)c2ccccc21`, the IC50 turned out to be 41 µM.

For the compound `Brc1ccc2ncsc2c1`, the IC50 was determined as 88 µM.

Turning to `CC(C)(C)S(=O)(=O)CC#N`, the IC50 came to 110 µM.

Consider `C=CCOC(=O)C1=CS(=O)(=O)c2ccccc21`, for which the IC50 was determined as 3.06 µM.

As for `Fc1ccccc1-c1ccc(CNCc2ccco2)o1`, the 50% inhibitory concentration (IC50) came out at 14.8 µM.

For the compound `Brc1ccc(-c2cnco2)cc1`, the IC50 came out at 60 µM.

For the compound `O=C(O)c1ccc(-c2c(Cl)cc([N+](=O)[O-])cc2Cl)o1`, the 50% inhibitory concentration (IC50) was 40.1 µM.

Regarding `CSc1nccc(Oc2ccccc2Cl)n1`, the IC50 worked out at 3.42 µM.

As to `CC1=CCn2nc(N)c(/N=N/c3ccccc3)c2N1`, the IC50 was 19.8 µM.

(Values after ChEMBL document CHEMBL5260849, “Current advances in Vibrio harveyi quorum sensing as drug discovery targets” (Eur J Med Chem, 2020).)
